Experimental data from patent US6867283B2, “Peptides capable of binding to MHC molecules, cells presenting such peptides, and pharmaceutical compositions comprising such peptides and/or cells” (Technion Research & Development Foundation Ltd., priority 2001, dated 2005).

Experiments:
[1] = test system: EL4-HHD cells loaded with the peptides; assay: Cytotoxic T lymphocytes assay after immunization of HHD transgenic mice with peptide-loaded cells; format: in vivo; conditions: compared to negative control peptide ALLCAPSLL; effector-to-target ratio of 50:1 shown
Source text: Cells were loaded separately with individual peptides, washed and injected in four groups: 1-p1028 (SEQ ID NO:13) alone, 2- p1258 (SEQ ID NO:24) alone, 3-pool of peptides: p913 (SEQ ID NO:5), p958 (SEQ ID NO:9), p989 of CD59 (SEQ ID NO:11) and p989 of FLI (SEQ ID NO:12), 4- peptides p1031 (SEQ ID NO:14), p1121 (SEQ ID NO:22) and p1068 (SEQ ID NO:16). Unloaded EL4-HHD or targets cells not loaded with the peptides were used as negative controls. An effector-to-target ratio of 50:1 is shown,
Transgenic mice expressing a single chain HLA-A2.1/Db-β2 m which are double knockout for H-2 Db and for β2 m (HHD mice) were immunized four times intra-peritoneally at 7-day interval with 2×10^6 irradiated (5,000 rad) RMA-S-HHD-B7.1 cells loaded for two hours at 26° C. followed by two hours at 37° C. with 100 μM of the synthetic peptides. Ten days after the last immunization the spleens were removed from the vaccinated mice. Splenocytes were re-stimulated with 100 μM of synthetic peptides for five days. Viable lymphocytes were separated by lympholyte-M (Cadarlane, Hornby, Canada) and resuspended in RPMI-HEPES. Cytotoxic activity was measured as in [26] by admixing the lymphocytes at different ratios with 5×10^3 EL4-HHD cells grown in medium containing ^35S methionine and then loaded wit the synthetic peptides.
To further evaluate the affinity of the peptides to the HLA-A2 and to obtain some insight into their immunogenic potential, selected peptides were tested for their ability to induce an immune response in HLA-A2 transgenic mice. It was assumed that only peptides that could be effectively presented and remain tightly bound to the cells would be capable of inducing an immune response in these mice. The same synthetic peptides that were used for the FACS analysis were used for immunization of the HHD transgenic mice, which express the human HLA-A2.1/Db-β2 m single chain. To immunize the mice, the HHD culture cells were loaded with the different peptides and then injected to the HHD mice. The immune response in the mice was followed by the appearance of CTLs specific for these peptides. Some of the peptides were indeed capable of inducing an immune response, which both authenticate them as MHC bound peptides and gives an indication about their immunogenic potential.

[2] = test system: T1, HLA-A2.1; assay: Stabilization of cell surface HLA-A2.1 by peptide binding (reconstitution into empty MHC on RMA-S-HHD cells, FACS); format: cell-based, human; conditions: synthetic peptide 100 μM, FACS with W6/32 mAb
T1 construct: expressed in transfected cells; host or cells: RMA-S (murine TAP-2 deficient lymphoma, C57BL/6 origin)
T1 sequence (P61769 with tags, fused parts or gaps): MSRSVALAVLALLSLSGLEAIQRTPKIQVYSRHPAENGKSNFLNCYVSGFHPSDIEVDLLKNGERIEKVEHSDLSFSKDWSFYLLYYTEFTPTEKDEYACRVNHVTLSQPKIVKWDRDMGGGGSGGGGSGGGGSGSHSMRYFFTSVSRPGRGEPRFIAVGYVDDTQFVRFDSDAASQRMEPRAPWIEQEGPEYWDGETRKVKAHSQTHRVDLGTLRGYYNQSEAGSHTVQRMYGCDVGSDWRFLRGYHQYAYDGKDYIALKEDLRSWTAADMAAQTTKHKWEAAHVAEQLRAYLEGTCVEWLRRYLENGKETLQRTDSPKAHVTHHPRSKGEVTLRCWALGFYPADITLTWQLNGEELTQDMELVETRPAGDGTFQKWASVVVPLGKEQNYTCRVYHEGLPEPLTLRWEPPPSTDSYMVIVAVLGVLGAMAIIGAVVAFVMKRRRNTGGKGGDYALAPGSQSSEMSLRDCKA
Protocol: Synthetic peptides were added to 10^6 RMA-S-HHD cells to a concentration of 100 μM followed by incubation for two hours at 26° C. and two hours at 37° C. […] The HLA-A2.1 peptide derived from gp100 served as a positive control and unloaded RMA-S-HHD cells as a negative control.
RMA-S-HHD cells were washed three times with PBS followed by incubation overnight in FCS-free IMDM medium at 26° C. Synthetic peptides were added to 10^6 cells at a concentration of 100 μM. The cells were incubated for two hours at 26° C. followed by two hours at 37° C. […] (Sigma).
Another approach to ascertain that the identified peptides were indeed MHC bound peptide antigens, their capacity to bind tightly and stabilize cell surface HLA-A2.1 was tested by reconstitution into empty MHC on the surface of RMA-S-HHD cells.

| Sequence | lysis of peptide-loaded EL4-HHD cells by CTLs from immunized HHD mice [1] | binding affinity to HLA-A2 / stabilization of empty MHC on the surface of RMA-S-HHD cells [2] |
| --- | --- | --- |
| TLWVDPYEV | significant lysis | – |
| GLIEKNIEL | significant lysis | – |
| GVYDGEEHSV | – | normal |
| ALSDHHIYL | significant lysis | – |
| FLFDGSPTYVL | significant lysis | – |
